Data published in patent publication US20230323296A1, “STEM CELL-LIKE MEMORY T CELLS AND USES THEREOF” (GEORGETOWN UNIVERSITY, priority 2020, published 2023).

What was measured:
[1] = system: CD4 cells from the splenocytes of wild type (WT) mice; test: In vitro assay of TSCM induction in activated CD4 cells (FACS); type: cell-based; conditions: TCONV cells activated with IL-2/anti-CD3/anti-CD28, 72 hours, MEKi 1 uM, vs cells activated without MEK1/2 inhibitor; FIG. 2A
Description: T conventional (TCONV) cells (from mouse spleen), defined as CD4^+FoxP3^− cells, were activated (Act) by IL-2 with anti-CD3/anti-CD28 in the presence (+) or absence (−) of MEK1/2 inhibitor for 72 hours, and the number of Sca1^+CD62L^+CD44^−CD4^+ T cells was determined by flow cytometry sorting (FACS).
CD4 cells from the splenocytes of wild type (WT) mice were prepared by magnetic purification using Biolegend cell sorting kits, as per the manufacturer's instructions. Purified cells were activated by plating 1×10^6/ml in cell activation medium that contained rIL-2 (100 IU/ml), anti-CD3 (5 ug/ml), anti-CD28 (2.5 ug/ml) and MEKi (1 uM). Appropriate arms (only cell activation and only IL-2 treatment) were also included for valid comparisons. After 72 hours of incubation at 37° C., at 5% CO2 in a humidified incubator, cells were picked up and processed for FACS analysis of TSCM induction.

[2] = system: CD4+ T cells in the tumor microenvironment (TME); test: In vivo TSCM generation in TC-1 tumor bearing mice (FACS of tumors); conditions: MEKi 10 mg/Kg oral gavage, 15 doses
Description: Mice were treated and tumors were isolated. The frequency of CD4^+ cells in variously treated mice (UT, untreated; Vax; MEKi, MEK1/2 inhibitor only; and Vax +MEKi, both E7 and MEK inhibitor) were determined. Error bars represent mean±SEM. (^NSnon-significant, *p≤0.05, **p≤0.01). For Vax treated mice, The CTL epitope from HPV16 E749-57 (RAHYNIVTF, 100 μg/mouse) was used mixed with PADRE, a small 13-mer non-natural pan HLA DR-binding sequence that is a potent T helper cell epitope (20 μg/mouse-Celtek Bioscience, Franklin, TN), and QuilA (adjuvant, 10 μg/mouse-Brenntag, Westbury, NY). Two doses of the vaccine were administered subcutaneously (s.c.) every seven days starting at an average tumor volume of 0.07-0.08 cm^3. Three days after the second vaccination, mice were sacrificed and expression of various markers was analyzed in cells from the tumors by flow cytometry
The frequency of CD62L^+CD44^− CD4^+ T cells in variously treated mice as described for FIG. 1A were determined. Error bars represent mean±SEM. (^NSnon-significant, *p≤0.05, **p≤0.01).
TC-1 tumor bearing mice were treated with an MEK inhibitor (MEKi) (10 mg/Kg), for a total of 15 doses, given everyday by oral gavage, starting when tumor reached an average size of 0.05 cm^3. […] The single-cell suspended tumors were labelled with appropriately conjugated fluorophore conjugated antibodies and analyzed by FACS.

Q: Which “generation of Sca1+ TNAIVE CD4+ T cells” value [1] does the source give for `N#CC(=C(N)Sc1ccc(N)cc1)c1ccccc1C(F)(F)F` [MEK1/2 inhibitor] here?
A: significantly enhanced

Q: What about the “numbers of CD4+ T cells in the tumor microenvironment (TME)” value ([2]; FIG. 1A) of the same molecule?
A: increases

Q: And the “induction of CD4+ T cells with a naive-like phenotype (CD62L+CD44-) in the TME” value ([2]; FIG. 1B)?
A: significantly enhanced
